Results as given in patent publication US8138206B2, “Piperidine derivative” (MSD. K.K., priority 2005, dated 2012).
Structures can show the parent of a compound that is named as a salt. Where two headings read alike, the source gives them in different places.

Columns and labels:
[1] = molecular target: T1, human histamine-H3 receptor (Homo sapiens, UniProt Q9Y5N1); experiment: Histamine analogue-binding inhibition test; conditions: 50% inhibitory concentration to specific [3H]N-α-methylhistamine binding; membrane specimen of cells expressing histamine-H3 receptor; 25° C., 2 hours
T1 construct: expressed in transfected cells; host or cells: HEK293 and CHO-K1 (membrane specimen)
T1 sequence (Q9Y5N1 whole entry): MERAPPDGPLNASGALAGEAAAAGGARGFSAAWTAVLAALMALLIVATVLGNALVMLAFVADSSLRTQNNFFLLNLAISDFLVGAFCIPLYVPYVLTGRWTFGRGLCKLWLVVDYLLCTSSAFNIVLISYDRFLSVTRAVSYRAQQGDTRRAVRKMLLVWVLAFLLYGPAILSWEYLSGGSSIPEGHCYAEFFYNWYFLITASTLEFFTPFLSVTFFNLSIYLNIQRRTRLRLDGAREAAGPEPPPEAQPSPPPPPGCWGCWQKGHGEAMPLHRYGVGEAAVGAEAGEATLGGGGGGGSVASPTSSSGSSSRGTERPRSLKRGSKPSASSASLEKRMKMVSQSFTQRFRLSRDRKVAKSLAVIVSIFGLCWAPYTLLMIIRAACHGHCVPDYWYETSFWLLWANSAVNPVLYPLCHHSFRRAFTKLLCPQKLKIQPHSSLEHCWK
Description: A cDNA sequence coding for a human histamine-H3 receptor (see WO00/39164) was cloned with expression vectors pCR2.1, pEF1x (by Invitrogen) and pCI-neo (by Promega). The resulting expression vector was transfected into host cells, HEK293 and CHO-K1 (American Type Culture Collection), according to a cationic lipid process [see Proceedings of the National Academy of Sciences of the United States of America, Vol., 84, p. 7413 (1987)] to obtain histamine-H3 receptor expression cells.
A membrane specimen prepared from the cells having expressed a histamine-H3 receptor was incubated in an assay buffer (50 mM Tris buffer, pH 7.4) along with a test compound and 20,000 cpm [^3H]N-α-methylhistamine (by NEN) therein, at 25° C. for 2 hours, and then filtered through a glass filter GF/C. After washed with 50 mM Tris buffer (pH 7.4), the radioactivity on the glass filter was determined. The non-specific binding was determined in the presence of 10 μM thioperamide (by SIGAM), and the 50% inhibitory concentration (IC50) of the test compound to the specific N-alpha-methylhistamine binding was calculated [Molecular Pharmacology, Vol. 55, p. 1101 (1999)].

[2] = Test for brain/cerebrospinal fluid transition; format: in vivo; conditions: SD male rat, 2 hours after the oral administration (10 mg/kg)
Description: A test compound (compound of Example 3-8) was orally or intravenously administered to an SD male rat (7 to 10-week age, 200 to 400 g), and under anesthesia with ether for a predetermined period of time, the whole blood was collected from it through the abdominal aorta thereof using a heparin-processed syringe. Next, the head skin was cut, and a dental 30 G needle was stuck into the cervical spine to run through the subarachnoid cavity. Via a tube connected to the dental 30 G needle, from 50 to 100 μl of the cerebrospinal fluid was collected in a 1-mL syringe, and then the brain was taken out. The blood sample was centrifuged (4° C., 6000 revolutions, 10 minutes), and the resulting plasma was stirred with ethanol (containing an internal standard substance) in an amount of three times thereof added to it. The brain sample was homogenized with 2 mL of water added thereto; and a part of it was taken out and stirred with ethanol (containing an internal standard substance) in an amount of three times thereof added to it. The cerebrospinal fluid was stirred with ethanol (containing an internal standard substance) in an amount of three times thereof added to it. The above samples were left at −20° C. for 20 minutes, then centrifuged (4° C., 12,000 g, 10 minutes), and the supernatant was analyzed through LC/MS/MS. According to a relative calibration curve method, the compound concentration in the plasma, in the brain and in the cerebrospinal fluid was determined. As a result, the test compound concentration in the brain was 0.99 nmol/g, that in the cerebrospinal fluid was 0.074 μM and that in the plasma was 0.6 μM, after 2 hours after the oral administration (10 mg/kg).

histamine-H3 receptor = molecular target: T2, histamine-H3 receptor (Rattus norvegicus, UniProt Q9QYN8); experiment: Test for antagonistic effect to water-drinking action induced by histamine-H3 receptor selective agonist, R-α-methylhistamine; format: in vivo; conditions: male SD rat; 30 mg/kg orally 2 hours before R-α-methylhistamine; water drunk for 1 hour
T2 construct: from tissue; host or cells: living male SD rat (brain, third ventricle administration of the agonist)
T2 sequence (Q9QYN8 whole entry): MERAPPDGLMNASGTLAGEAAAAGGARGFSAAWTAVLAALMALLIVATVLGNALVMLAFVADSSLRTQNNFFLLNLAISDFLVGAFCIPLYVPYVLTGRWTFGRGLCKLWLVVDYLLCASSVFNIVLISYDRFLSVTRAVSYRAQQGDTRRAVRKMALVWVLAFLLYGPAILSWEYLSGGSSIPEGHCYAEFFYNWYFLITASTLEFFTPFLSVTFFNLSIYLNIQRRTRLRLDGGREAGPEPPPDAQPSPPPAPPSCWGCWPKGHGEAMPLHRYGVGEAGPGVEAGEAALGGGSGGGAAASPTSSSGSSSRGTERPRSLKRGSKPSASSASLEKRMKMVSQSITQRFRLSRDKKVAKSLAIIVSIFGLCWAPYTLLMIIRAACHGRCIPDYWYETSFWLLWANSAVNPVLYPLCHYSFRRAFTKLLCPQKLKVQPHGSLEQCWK
Description: Under anesthesia with ketamine xylazine (74 and 11 mg/kg intraabdominal single administration), a brain stereotaxic device was set in the third ventricle of a male SD rat (7 to 10-week age, […]), and a chronic guide cannula (26 gauge, length 11 mm) was inserted into it and fixed with a dental resin. The position of the tip of the guide cannula is at 2.2 mm after the bregrna on the midline, and at a depth of 8 mm from the surface of the skull. After a restoration term of about 1 week, R-α-methylhistamine (0.3 μg/l μL/head, 30% propylene glycol liquid) was administered into the third ventricle. A test compound (compound of Example 3-8) suspended in an aqueous 0.5% methyl cellulose solution was orally administered to the rat before 2 hours before the R-α-methylhistamine administration; and after the R-α-methylhistamine administration, the amount of water drunk by the rat for 1 hour was measured.

| SMILES | IC50 [1] [nM] | further results |
| --- | --- | --- |
| COc1ccc(C2(O)CCN(c3ccc(OCCCN4CCCCC4)cc3)CC2)cc1 [Example 2-6, 4-(4-methoxyphenyl)-1-[4-(3-piperidin-1-ylpropoxy)phenyl]piperidin-4-ol trifluoroacetate] | 3 |  |
| O=C1COC2(CCN(c3ccc(OCCCN4CCCCC4)cc3)CC2)CN1c1ccccc1 [Example 3-8, 4-phenyl-9-[4-(3-piperidin-1-ylpropoxy)phenyl]-1-oxa-4,9-diazaspiro[5,5]undecan-3-one] | 4.2 | test compound concentration in the brain [2]: 0.99 nmol/g; concentration at 2 h ([2]; cerebrospinal fluid, read-out: test compound concentration in the cerebrospinal fluid): 74 nM; concentration at 2 h ([2]; plasma, read-out: test compound concentration in the plasma): 600 nM; increase in the water drinking induced by the administration of R-α-methylhistamine in the third ventricle (histamine-H3 receptor): significantly inhibited |
| COc1ncc(N2CC3(CCN(c4ccc(OCCCN5CCCCC5)cc4)CC3)OCC2=O)cn1 [Example 3-15, 4-(2-methoxypyrimidin-5-yl)-9-[4-(3-piperidin-1-ylpropoxy)phenyl]-1-oxa-4,9-diazaspiro[5,5]undecan-3-one] | 0.22 |  |
| O=C1OC2(CCN(c3ccc(OCCCN4CCCCC4)cc3)CC2)CN1c1ccncc1 [Example 3-42, 8-[4-(3-piperidin-1-ylpropoxy)phenyl]-3-(pyridin-4-yl)-1-oxa-3,8-diazaspiro[4,5]decan-2-one] | 0.94 |  |
| C[C@@H]1CCCN1CCCOc1ccc(N2CCC3(CC2)CN(c2ccc(S(C)(=O)=O)cc2)C(=O)CO3)cc1 [Example 3-79, 9-(4-{3-[(2R)-2-methylpyrrolidin-1-yl]propoxy}phenyl)-4-[4-(methylsulfonyl)phenyl]-1-oxa-4,9-diazaspiro[5,5]undecan-3-one] | 0.19 |  |
| CCN1CC2(CCN(c3ccc(OCCCN4CCC[C@H]4C)cc3)CC2)OC1=O [Example 3-96, 3-ethyl-8-(4-{3-[(2R)-2-methylpyrrolidin-1-yl]propoxy}phenyl)-1-oxa-3,8-diazaspiro[4,5]decan-2-one] | 0.41 |  |
| COc1ccc(N2CC3(CCN(c4ccc(OC5CCN(C6CCC6)CC5)cc4)CC3)OC2=O)cn1 [Example 3-168, 8-{4-[(1-cyclobutylpiperidin-4-yl)oxy]phenyl}-3-(6-methoxypyridin-3-yl)-1-oxa-3,8-diazaspiro[4,5]decan-2-one] | 0.09 |  |
| C[C@H]1CCCN(CCCOc2ccc(N3CCC4(CC3)CN(C3CCCC3)C(=O)CO4)cc2)C1 [Example 4-17, 4-cyclopentyl-9-(4-{3-[(3S)-3-methylpiperidin-1-yl]propoxy}phenyl)-1-oxa-4,9-diazaspiro[5,5]undecan-3-one] | 1.2 |  |

Now from value to molecule, other results behind:

| IC50 [1] [nM] | SMILES | further results |
| --- | --- | --- |
| 1.2 | C[C@H]1CCCN1CCCOc1ccc(N2CCC3(CC2)CN(c2cnn(C)c2)C(=O)CO3)cc1 [Example 3-95, 4-(1-methyl-1H-pyrazol-4-yl)-9-(4-{3-[(2S)-2-methylpyrrolidin-1-yl]propoxy}phenyl)-1-oxa-4,9-diazaspiro[5,5]undecan-3-one] |  |
| 0.18 | COc1ccc(N2CC3(CCN(c4ccc(OC5CCN(C6CCC6)CC5)cc4)CC3)OCC2=O)cc1 [Example 3-107, 9-{4-[(1-cyclobutylpiperidin-4-yl)oxy]phenyl}-4-(4-methoxyphenyl)-1-oxa-4,9-diazaspiro[5,5]undecan-3-one] |  |
| 1.08 | CC(C)N1CCC(Oc2ccc(N3CCC4(CC3)CN(c3cnccn3)C(=O)CO4)cc2)CC1 [Example 3-138, 9-{4-[(1-isopropylpiperidin-4-yl)oxy]phenyl}-4-pyrazin-2-yl-1-oxa-4,9-diazaspiro[5,5]undecan-3-one] |  |
| 0.66 | O=C1COC2(CCN(c3ccc(OC4CCN(C5CCC5)CC4)nc3)CC2)CN1c1cccnc1 [Example 3-150, 9-{6-[(1-cyclobutylpiperidin-4-yl)oxy]pyridin-3-yl}-4-pyridin-3-yl-1-oxa-4,9-diazaspiro[5,5]undecan-3-one] |  |
